Columns and labels:
[1] = system: copper transporter, Ctrl also known as SLC31A1; assay: Copper transporter Ctr1 (SLC31A1) gene expression in HT-29 cells, RT-PCR; type: cell-based, human
Protocol: The effect of compound 3 and compound 7 treatment on the expressions of a zinc-storage protein meallothionein 1A (MT1A) (FIG. 29A), a copper transporter, Ctrl also known as SLC31A1 (FIG. 29B) and an iron transporter; transferrin receptor 1 (TfR1) (FIG. 29C) were measured and compared with a known zinc chelator TPEN, a copper chelator tetramine and an iron chelator DFO, respectively. Despite in vitro chelation of Cu^+2, increase in copper-sensitive gene after compound 3 treatment was transient.

[2] = system: p21 (cyclin-dependent kinase inhibitor); assay: p21 mRNA expression in HT-29 cells, real-time PCR; type: cell-based, human; details: HT-29, 1 μM, after 4 hr
Protocol: The effect of compounds of Formula I on the expression of genes regulated by KLF4 was determined as follows. Compound 3 was tested to determine its ability to increase the expression of the cell cycle regulator p21 (cyclin-dependent kinase inhibitor) in HT-29 colon carcinoma cells. […] HT-29 cells were incubated with DMSO (vehicle control), 35 μM ZnCl2, 1 μM or 4 μM TPEN, or 0.5 μM, 1 μM, 4 μM, or 7.5 μM compound 3 for 16 hours, and mRNA was extracted from the cells. The expression of p21 mRNA was analyzed by real-time polymerase chain reaction using the comparative CT method. This assay was carried out using methods described in Example 19.
The expressions of p21 gene and proteins were examined following treatment with compound 3. Gene expression of p21 in HT-29 cells treated with 1 μM compound 3 was determined at the indicated times as follows. Total RNA was extracted and gene expression level was determined by RT-PCR (FIG. 42A). The level of p21 protein in total cell lysate was measured by ELISA (FIG. 42B) as follows. HT-29 cells were treated with 1 μM compound 3 with and without 20 μM MG-132 (proteasome inhibitor) for indicated time.

supercoiled plasmid DNA = assay: In vitro DNA cleavage assay; type: biochemical
How it was run: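 Supercoiled plasmid DNA (1 μg) in 10 mM sodium phosphate pH 6.7 with 100 μM ascorbate, 25 μM compound and 10 μM CuSO4 was kept 30 min at 37° C., stopped with EDTA and resolved on 1% agarose. Variants used 25 μM Cu, Zn or Fe salts, or compound:Cu ratios set with one component held at 10 μM.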

[3] = system: fourth leukemia cell line (a myeloma cell line); assay: NCI DTP in vitro screen, fourth leukemia cell line; type: cell-based; details: Homo sapiens
Protocol: For example, the following methodology, which is currently employed by the NCI, can be used to assess the GI50 of a candidate compound of Formula I in the selected cancer cell lines. Briefly, cell suspensions are diluted (5000-40,000 cells per well) and 100 μL of the diluted cell suspension is added into 96-well microtiter plates. Inoculates are allowed a preincubation period of 24 h at 37° C. for stabilization. Dilutions at twice the intended test concentration of the candidate compound are added at time zero in 100 μL aliquots to the microtiter plate wells. Test compounds are generally evaluated at five 10-fold dilutions. In routine testing, the highest well concentration is usually 10E-4 M, but this may be adjusted depending on the compound being tested. […] The cells are then assayed by using the sulforhodamine B assay (see, for example, Skehan, P., et al. (1990) JNCI, J. Natl. Cancer Inst. 82, 1107-1112; and Chen, S. F., et al. (1990) Proc. Am. Assoc. Cancer Res. 31, A2644) employing a plate reader which can be used to read the optical densities.
Compounds 2 and 3 were evaluated for their antiproliferative effects in a panel of 60 human cancer cell lines as part of the in vitro anticancer screening services provided by the DTP (Developmental Therapeutics Program) of the US National Cancer Institute (NCI).

KLF4 = KLF4 DNA binding activity, EMSA, HT-29 nuclear extracts; type: cell-based, human
Protocol: Based on overlapping transcription factor binding sites on KLF4 gene promoter region (as shown in FIG. 32A), MTF-1 binding may favor increased binding of other KLF4 inducers; Sp1 and KLF4.
Electrophoretic mobility shift assay (EMSA) was performed as follows. Nuclear extracts from HT-29 cells (10^7 cells in 100 mm culture dish in each experimental group) were prepared using nuclear extraction kit (Panomics, Redwood City, Calif.). EMSA assays were performed using KLF4 and Sp1 EMSA “Gel-Shift” kits (Panomics), by following the manufacturer's instruction. Briefly, 5 μg of nuclear extract was used for each binding reaction. After 30 min of binding reaction, the samples were separated on 6% polyacrylamide gel at 4° C. at 120 V, and transferred to BrightStar™-Plus positively charged nylon membrane. The biotin-labeled probes on the membrane were visualized by using ECL detection system (Panomics).

## Cc1[nH]c2ccccc2c1-c1nc2c3cccnc3c3ncccc3c2[nH]1 [Compound 3]
[1]
  copper-sensitive gene expression: transient
[2]
  p21 gene expression, change: Increased gene expression of p21
Supercoiled plasmid DNA; 25 μM ZnCl2 or FeCl2 instead of copper
  cleavage of plasmid DNA: Neither zinc nor iron was able to replace copper
Supercoiled plasmid DNA; 25 μM compound, 10 μM CuSO4, 100 μM ascorbic acid, 37° C., 30 minutes
  cleavage of plasmid DNA: able to cleave plasmid DNA
Supercoiled plasmid DNA; absence of copper or reducing agent
  cleavage of plasmid DNA: Neither compound 3 nor OP was able to cleave DNA
Supercoiled plasmid DNA; ratio compound to copper 1:3
  cleavage of plasmid DNA: able to cleave at a ratio of 1:3
Supercoiled plasmid DNA; ratios compound to copper 1:1, 1:2, 1:2.5
  cleavage of plasmid DNA: unable to cleave
[3]
  GI50: 2880 nM
KLF4
  DNA binding activity of KLF4: Increased DNA binding activities

Source: patent US8148392B2, “2-indolyl imidazo [4,5-d] phenanthroline derivatives and their use in the treatment of cancer” (Lorus Therapeutics Inc., priority 2005, dated 2012)
